Test [1] concerns Daudi. Kind of test: Cytotoxicity against human Daudi cells assessed as reduction in cell growth incubated for 24 hrs by MTT assay. The format is functional, cell-based.
Test [2] deals with MCF7. Kind of test: Cytotoxicity against human MCF7 cells assessed as reduction in cell growth incubated for 24 hrs by MTT assay. The note with it: MCF7, 24 h. The format is functional, cell-based. (Tetrazolium dyes change colour on reduction, which living cells bring about.)
Test [3] has as its system A549. The test is described as follows: Cytotoxicity against human A549 cells assessed as reduction in cell growth incubated for 24 hrs by MTT assay. The format is functional, cell-based. The note with it: A549, 24 h.
In test [4] the target is T1, Histone deacetylase 8 (Homo sapiens, UniProt Q9BY41).
T1 sequence (Q9BY41 whole entry): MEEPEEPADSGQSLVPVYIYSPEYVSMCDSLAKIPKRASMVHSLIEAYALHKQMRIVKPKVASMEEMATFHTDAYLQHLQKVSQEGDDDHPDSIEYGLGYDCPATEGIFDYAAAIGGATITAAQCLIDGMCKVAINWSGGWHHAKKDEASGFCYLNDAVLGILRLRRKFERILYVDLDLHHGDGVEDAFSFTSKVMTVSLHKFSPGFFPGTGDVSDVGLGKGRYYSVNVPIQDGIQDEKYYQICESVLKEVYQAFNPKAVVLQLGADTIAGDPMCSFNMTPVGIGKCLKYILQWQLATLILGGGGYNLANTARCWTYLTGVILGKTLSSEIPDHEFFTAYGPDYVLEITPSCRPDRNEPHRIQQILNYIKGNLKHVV
Kind of test: Inhibition of HDAC8 (unknown origin) using R-H-K(Ac)-K(Ac)-AFC as fluoregenic substrate by fluorescence based analysis.

Test [5] relates to MV4-11. Kind of test: Cytotoxicity against human MV4-11 cells assessed as reduction in cell growth incubated for 24 hrs by MTT assay. The note with it: MV4-11, 24 h. Type of test: functional, cell-based.
Test [6] relates to A549. The test is described as follows: Antiproliferative activity against human A549 cells assessed as cell growth inhibition by SRB assay. Type of test: functional. Background: In SRB staining, fixed cells bind dye roughly in proportion to their protein.
Test [7] concerns HeLa. Kind of test: Antiproliferative activity against human HeLa cells assessed as cell growth inhibition by SRB assay. Type of test: functional.
Test [8] concerns HeLa. The test is described as follows: Antiproliferative activity against human HeLa cells measured after 24 hrs by MTT assay. Type of test: functional, cell-based.
Test [9] has as its system MCF7. Kind of test: Antiproliferative activity against human MCF7 cells assessed as cell growth inhibition by SRB assay. The format is functional.
The test system of test [10] is HepG2. Kind of test: Antiproliferative activity against human HepG2 cells measured after 24 hrs by MTT assay. The format is functional, cell-based. The note with it: HepG2, 24 h.
Test [11] has as its system K562. The test is described as follows: Antiproliferative activity against human K562 cells assessed as cell growth inhibition by SRB assay. Type of test: functional.
The subject of test [12] is HCT-116. Kind of test: Antiproliferative activity against human HCT-116 cells measured after 24 hrs by MTT assay. Type of test: functional, cell-based. Conditions: HCT-116, 24 h.
Test [13] addresses Histone deacetylase 1 (Homo sapiens, UniProt Q13547). Kind of test: Inhibition of HDAC1 (unknown origin).
Test [14] relates to A2780. Kind of test: Antiproliferative activity against human A2780 cells. The format is functional, cell-based.
In test [15] the target is Phosphatidylinositol 4,5-bisphosphate 3-kinase catalytic subunit alpha isoform (Homo sapiens, UniProt P42336). The test is described as follows: Inhibition of PI3Kalpha (unknown origin).
Test [16] has as its system MCF7. The test is described as follows: cells. The note with it: Homo sapiens.
Test [17] concerns A549. The test is described as follows: Antiproliferative activity against human A549 cells.
In test [18] the test system is HepG2. The test is described as follows: Antiproliferative activity against human HepG2 cells. The format is functional, cell-based.
Test [19] deals with HeLa. Kind of test: Antiproliferative activity against human HeLa cells. The format is functional, cell-based.
In test [20] the test system is HCT-116. Kind of test: cells. Conditions: Homo sapiens.
Test [21] relates to HT-29. Kind of test: Antiproliferative activity against human HT-29 cells. The format is functional, cell-based.
Test [22] relates to SW-620. The test is described as follows: Antiproliferative activity against human SW620 cells incubated for 72 hrs by colorimetric method. Type of test: functional, cell-based. The note with it: SW-620, 72 h.
Test [23] addresses Histone deacetylase. The test is described as follows: Inhibition of HDAC (unknown origin). Type of test: protein assay, Homo sapiens.
Test [24] relates to NCI-H23. The test is described as follows: Antiproliferative activity against human NCI-H23 cells incubated for 72 hrs by colorimetric method. The format is functional, cell-based. The note with it: NCI-H23, 72 h.
Test [25] has as its system PC-3. Kind of test: Antiproliferative activity against human PC-3 cells incubated for 72 hrs by colorimetric method. Type of test: functional, cell-based. The note with it: PC-3, 72 h.
For test [26], the system named is MGC-803. Kind of test: Antitumor activity against human MGC-803 cells xenografted in mouse assessed as tumor growth inhibition at 20 mg/kg relative to control. Type of test: functional. The note with it: read-out: TGI. In general terms: In xenograft studies the graft and the host belong to different species.
The subject of test [27] is KYSE-450. The test is described as follows: Antiproliferative activity against human KYSE-450 cells. The format is functional, cell-based.

Histone deacetylase 1, sequence (Q13547 whole entry): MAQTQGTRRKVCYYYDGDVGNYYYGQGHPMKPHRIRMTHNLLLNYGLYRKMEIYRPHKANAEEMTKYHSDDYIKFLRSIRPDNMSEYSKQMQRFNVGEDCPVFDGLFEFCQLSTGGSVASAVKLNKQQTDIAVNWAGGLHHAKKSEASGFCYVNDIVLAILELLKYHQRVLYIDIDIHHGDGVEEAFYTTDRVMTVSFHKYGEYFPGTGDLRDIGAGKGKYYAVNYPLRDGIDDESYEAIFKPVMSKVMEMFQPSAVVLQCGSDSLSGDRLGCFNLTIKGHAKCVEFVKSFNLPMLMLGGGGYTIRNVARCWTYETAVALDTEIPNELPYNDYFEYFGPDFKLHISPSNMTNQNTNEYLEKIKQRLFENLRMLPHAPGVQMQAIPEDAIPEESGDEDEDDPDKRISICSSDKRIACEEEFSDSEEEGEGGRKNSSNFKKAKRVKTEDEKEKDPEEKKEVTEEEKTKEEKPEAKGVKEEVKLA
Phosphatidylinositol 4,5-bisphosphate 3-kinase catalytic subunit alpha isoform, sequence (P42336 whole entry, canonical isoform): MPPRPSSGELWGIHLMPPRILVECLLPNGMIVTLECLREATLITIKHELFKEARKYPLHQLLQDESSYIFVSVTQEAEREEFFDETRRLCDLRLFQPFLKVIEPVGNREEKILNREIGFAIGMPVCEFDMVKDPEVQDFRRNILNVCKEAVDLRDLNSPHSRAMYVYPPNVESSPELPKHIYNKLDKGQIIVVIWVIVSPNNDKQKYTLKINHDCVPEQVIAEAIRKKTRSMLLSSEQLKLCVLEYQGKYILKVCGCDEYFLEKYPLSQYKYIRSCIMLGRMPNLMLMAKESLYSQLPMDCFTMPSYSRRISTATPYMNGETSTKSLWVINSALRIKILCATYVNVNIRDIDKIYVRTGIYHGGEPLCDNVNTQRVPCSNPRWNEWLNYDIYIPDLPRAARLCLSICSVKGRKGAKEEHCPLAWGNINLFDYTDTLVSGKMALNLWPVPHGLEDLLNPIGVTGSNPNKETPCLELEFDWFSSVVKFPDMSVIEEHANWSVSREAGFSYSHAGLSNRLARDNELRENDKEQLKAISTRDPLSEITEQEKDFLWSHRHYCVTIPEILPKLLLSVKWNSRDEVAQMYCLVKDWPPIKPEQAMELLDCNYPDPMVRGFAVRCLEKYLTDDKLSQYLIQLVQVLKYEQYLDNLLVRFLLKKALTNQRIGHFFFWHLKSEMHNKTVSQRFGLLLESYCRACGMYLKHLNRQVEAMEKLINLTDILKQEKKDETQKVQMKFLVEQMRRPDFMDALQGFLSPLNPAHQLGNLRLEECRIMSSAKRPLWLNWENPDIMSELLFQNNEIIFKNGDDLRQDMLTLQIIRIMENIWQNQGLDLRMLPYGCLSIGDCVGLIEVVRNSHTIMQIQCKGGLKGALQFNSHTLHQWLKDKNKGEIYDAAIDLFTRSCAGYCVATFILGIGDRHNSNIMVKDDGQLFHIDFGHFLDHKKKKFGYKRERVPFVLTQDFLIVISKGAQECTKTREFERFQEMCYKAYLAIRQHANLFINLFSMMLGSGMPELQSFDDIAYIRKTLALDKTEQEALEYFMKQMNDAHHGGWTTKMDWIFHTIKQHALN

As for `O=C(CCCCCN1C(=O)c2ccccc2/C=C\c2ccccc21)NO`, the IC50 in test [1] came to 93 nM; in [2], 93 nM; in [3] it was 93 nM; in test [4] it was 183 nM; in test [5], 93 nM.

In the case of `COc1cccc2c1C(=O)c1c(O)c3c(c(O)c1C2=O)C[C@@](O)(C(=O)CO)C[C@@H]3O[C@H]1C[C@H](N)[C@H](O)[C@H](C)O1` [DOXORUBICIN], the concentration for 50% growth inhibition (GI50) in [6], in test [7], in test [9] and in test [11] was less than 10000 nM throughout. The IC50 in test [8], in test [10] and in test [12] was 4170 nM in each case.

For the compound `COc1ncc(-c2ccc3nccc(C(=O)NCCCCC(=O)NO)c3c2)cc1NS(=O)(=O)c1cc(F)cc(F)c1`, the values for the IC50 in test [13], in test [14] and in test [15] were 4.8 nM, 2150 nM and 1.3 nM, respectively.

In the case of `COc1ncc(-c2ccc3ncc(C(=O)NCCCCCCC(=O)NO)cc3c2)cc1NS(=O)(=O)c1ccc(F)cc1F`, the IC50 in test [13] is 4.8 nM; in [14], 2310 nM; in test [15] it was 1.3 nM.

With `CN1c2ccc(NCc3ccc(/C=C/C(=O)NO)cc3)cc2C(=O)N2CCc3c([nH]c4ccc(O)cc34)C21` (configuration not stated), the IC50 in test [16] and in test [17] was 180 nM in each case.

On to `CCN(CC)c1ccc2cc(C(=O)Oc3cccc(/C=C/C(=O)NO)c3)c(=O)oc2c1`, for which the IC50 in test [18], in test [19], in test [16] and in test [20] was 7010 nM in each case.

In the case of `COc1ccc2c(c1)[nH]c1c(C)nccc12` [HARMINE], the IC50 in test [18], in test [20], in [21] and in [17] was more than 20000 nM in each case.

Turning to `O=C(CCCCCN1C(=O)c2ccccc2NC(=O)c2ccccc21)NO`, the IC50 in test [1] was 93 nM; in [2], 93 nM; in test [3], 93 nM; in test [4], 183 nM; in test [5], 93 nM.

In the case of `O=C(NO)c1csc(NS(=O)(=O)Nc2ccc(Cl)cc2)n1`, the IC50 in [22] was 1450 nM; in [23], 36 nM; in test [24], 1450 nM; in test [25], 1450 nM.

As to `CNC(=O)c1ccccc1Nc1nc(Nc2ccc(N3CCOCC3)cc2OC)ncc1Cl`, the inhibition in vivo at 20 mg/kg in [26] turned out to be 22.3%. For the same compound, the IC50 in [20] and in [27] was 719 nM each time.

Regarding `Cc1ccc(NS(=O)(=O)Nc2nc(C(=O)NO)cs2)cc1`, the IC50 in test [22] turned out to be 1450 nM; in [23] it was 36 nM; in [24] it was 1450 nM; in test [25] it was 1450 nM.

Consider `COc1ncc(-c2ccc3nccc(C(=O)NCCCCCC(=O)NO)c3c2)cc1NS(=O)(=O)c1cc(F)cc(F)c1`, for which the IC50 turned out to be 4.8 nM in [13], 2620 nM in [14] and 1.3 nM in test [15].

For orientation: IC50 means the point on the concentration scale where inhibition reaches its midpoint. Usually GI50 stands for the concentration giving 50% growth inhibition.
